Source: ChEMBL document CHEMBL3132801, “Meridianin G and its analogs as antimalarial agents” (Medchemcomm, 2013)
In brackets after ≈: the same amount, converted by molar mass. Activity calls are given as the source filed them. The rule behind the calls is not given here.

Columns and labels:
[1] = tested on: LLC-PK1; experiment: Cytotoxicity against a pig LLC-PK1 cells after 48 hrs by Neutral Red assay; assay type: cell-based; conditions: Sus scrofa, LLC-PK1, 48 h
[2] = tested on: Vero; experiment: Cytotoxicity against african green monkey Vero cells after 48 hrs by Neutral Red assay; assay type: cell-based; conditions: Chlorocebus sabaeus
[3] = Selectivity index, ratio of IC50 for african green monkey Vero cells to IC50 for Plasmodium falciparum W2; assay type: toxicity, cell-based; conditions: read-out: Ratio IC50
[4] = Selectivity index, ratio of IC50 for human HepG2 cells to IC50 for Plasmodium falciparum D6; assay type: toxicity, cell-based; conditions: read-out: Ratio IC50
[5] = tested on: Plasmodium falciparum; experiment: Antimicrobial activity against Plasmodium falciparum D6 after 72 hrs by LDH activity assay; assay type: functional, organism-based
[6] = tested on: Plasmodium falciparum; experiment: Antimicrobial activity against Plasmodium falciparum W2 after 72 hrs by LDH activity assay; assay type: functional, organism-based
[7] = Selectivity index, ratio of IC50 for african green monkey Vero cells to IC50 for Plasmodium falciparum D6; assay type: toxicity, cell-based; conditions: read-out: Ratio IC50
[8] = Selectivity index, ratio of IC50 for pig LLC-PK1 cells to IC50 for Plasmodium falciparum D6; assay type: toxicity, cell-based; conditions: read-out: Ratio IC50
[9] = tested on: HepG2; experiment: Cytotoxicity against human HepG2 cells after 48 hrs by Neutral Red assay; assay type: cell-based; conditions: HepG2, 48 h
[10] = Selectivity index, ratio of IC50 for pig LLC-PK1 cells to IC50 for Plasmodium falciparum W2; assay type: toxicity, cell-based; conditions: read-out: Ratio IC50
[11] = Selectivity index, ratio of IC50 for human HepG2 cells to IC50 for Plasmodium falciparum W2; assay type: toxicity, cell-based; conditions: read-out: Ratio IC50
[12] = tested on: Leishmania donovani; experiment: Antileishmanial activity against Leishmania donovani promastigotes after 48 hrs by Alamar Blue assay; assay type: functional, organism-based
[13] = tested on: Staphylococcus aureus; experiment: Antimicrobial activity against Staphylococcus aureus by NCCLS method; assay type: functional, organism-based
[14] = tested on: Candida albicans; experiment: Antimicrobial activity against Candida albicans by NCCLS method; assay type: functional, organism-based
[15] = tested on: Cryptococcus neoformans; experiment: Antimicrobial activity against Cryptococcus neoformans by NCCLS method; assay type: functional, organism-based
[16] = tested on: Aspergillus fumigatus; experiment: Antimicrobial activity against Aspergillus fumigatus by NCCLS method; assay type: functional, organism-based
[17] = tested on: Staphylococcus aureus; experiment: Antimicrobial activity against methicillin-resistant Staphylococcus aureus by NCCLS method; assay type: functional, organism-based
[18] = Plasmodium falciparum, D6, 72 h, read-out: IC50
[19] = Plasmodium falciparum, W2, 72 h, read-out: IC50
[20] = Leishmania donovani, 48 h, read-out: IC50
[21] = Staphylococcus aureus, read-out: IC50

| Structure (SMILES) | IC50 [1] | IC50 [2] | selectivity ratio [3] | selectivity ratio [4] | IC50 [5, 18] | IC50 [6, 19] | selectivity ratio [7] | selectivity ratio [8] | IC50 [9] | selectivity ratio [10] | selectivity ratio [11] | IC90 [12] | IC50 [6] | IC50 [12, 20] | MBC [15] | MIC [15] | other results |
| --- | --- | --- | --- | --- | --- | --- | --- | --- | --- | --- | --- | --- | --- | --- | --- | --- | --- |
| Nc1nccc(-c2cn(Cc3c4ccccc4cc4ccccc34)c3ccc(Br)cc23)n1 | > 52 µM | > 52 µM | > 4.5 | > 4.7 | 11.1 µM | 11.6 µM | > 4.7 | > 4.7 | > 52 µM | > 4.5 | > 4.5 | inactive | – | – | – | – | IC50 [12]: Not Active |
| C[C@@H]1CC[C@H]2[C@@H](C)C(=O)O[C@@H]3O[C@@]4(C)CC[C@@H]1[C@]32OO4 [ARTEMISININ] | – | – | – | – | < 0.09 µM | < 0.09 µM | – | – | – | – | – | – | – | – | – | – | – |
| Nc1nccc(-c2cn(C(=O)N3CCOCC3)c3ccc(Br)cc23)n1 | – | – | – | – | – | – | – | – | – | – | – | – | – | – | – | – | Activity [5]: inactive; Activity [6]: inactive; Activity [12]: inactive |
| Cc1noc(C)c1Cn1cc(-c2ccnc(N)n2)c2ccccc21 | > 78 µM | > 78 µM | – | > 6.3 | 12.4 µM | – | > 6.3 | > 6.3 | > 78 µM | – | – | inactive | Not Active | – | – | – | IC50 [12]: Not Active |
| COc1cccc2c1C(=O)c1c(O)c3c(c(O)c1C2=O)C[C@@](O)(C(=O)CO)C[C@@H]3O[C@H]1C[C@H](N)[C@H](O)[C@H](C)O1 [DOXORUBICIN] | < 1 µM | 7 µM | – | – | – | – | – | – | 2 µM | – | – | – | – | – | – | – | – |
| O=c1[nH]c(-c2c[nH]c3ccc(I)cc23)nc2ccccc12 | > 65 µM | > 65 µM | – | – | – | – | – | – | > 65 µM | – | – | – | Not Active | 9.17 µM | – | – | IC50 [5]: Not Active; IC90 ([12]; Leishmania donovani, 48 h): 14.2 µM |
| Nc1nccc(-c2cn(Cc3ccc(Cl)s3)c3ccccc23)n1 | > 74 µM | > 74 µM | – | – | – | – | – | – | > 74 µM | – | – | inactive | Not Active | 41.3 µM | 14.7 µM (≈ 5.01 µg/mL) | 14.7 µM (≈ 5.01 µg/mL) | IC50 [13]: Not Active; MBC [13]: inactive; MIC [13]: inactive; Activity [14]: inactive; IC50 [15]: 13 µM; IC50 [5]: Not Active; Activity [16]: inactive; IC50 [17]: Not Active; MBC [17]: inactive; MIC [17]: inactive |
| C[C@@H]1[C@H](O)[C@@H](C)/C=C/C=C/C=C/C=C/C=C/C=C/C=C/[C@H](O[C@@H]2O[C@H](C)[C@@H](O)[C@H](N)[C@@H]2O)C[C@@H]2O[C@](O)(C[C@@H](O)C[C@@H](O)[C@H](O)CC[C@@H](O)C[C@@H](O)CC(=O)O[C@H]1C)C[C@H](O)[C@H]2C(=O)O [AMPHOTERICIN B] | – | – | – | – | – | – | – | – | – | – | – | – | – | – | 1.35 µM (≈ 1.25 µg/mL) | 1.35 µM (≈ 1.25 µg/mL) | IC90 ([12]; Leishmania donovani, 48 h): 0.35 µM |
| CN1CCN(C(=O)n2cc(-c3ccnc(N)n3)c3ccccc32)CC1 | > 74 µM | > 74 µM | > 5.1 | > 7.7 | 9.63 µM | 14.5 µM | > 7.7 | > 7.7 | > 74 µM | > 5.1 | > 5.1 | inactive | – | – | – | – | IC50 [12]: Not Active |
| CN1CCN(C(=O)n2cc(-c3ccnc(N)n3)c3cc(Br)ccc32)CC1 | > 60 µM | > 60 µM | – | – | – | – | – | – | > 60 µM | – | – | – | Not Active | 40.5 µM | – | – | IC50 [5]: Not Active; IC90 ([12]; Leishmania donovani, 48 h): 108 µM |
| Nc1nccc(-c2cn(C(=O)N3CCOCC3)c3ccccc23)n1 | > 77 µM | > 77 µM | > 25.1 | > 19.3 | 4.01 µM | 3.08 µM | > 19.3 | > 19.3 | > 77 µM | > 25.1 | > 25.1 | inactive | – | – | – | – | IC50 [12]: Not Active |
| Nc1nccc(-c2cn(Cc3ccc(Cl)s3)c3ccc(Br)cc23)n1 | > 60 µM | > 60 µM | > 5.9 | > 4.4 | 13.6 µM | 10.1 µM | > 4.4 | > 4.4 | > 60 µM | > 5.9 | > 5.9 | – | – | 29.1 µM | 47.7 µM (≈ 20 µg/mL) | 47.7 µM (≈ 20 µg/mL) | MBC [13]: inactive; MIC [13]: inactive; IC50 [13, 21]: 40.5 µM; Activity [14]: inactive; IC50 [15]: 19.9 µM; Activity [16]: inactive; IC50 [17]: Not Active; MBC [17]: inactive; MIC [17]: inactive; IC90 ([12]; Leishmania donovani, 48 h): 41.2 µM |
| COc1cccc(C(=O)n2cc(-c3ccnc(N)n3)c3ccccc32)c1 | – | – | – | – | – | – | – | – | – | – | – | – | – | – | – | – | Activity [5]: inactive; Activity [6]: inactive; Activity [12]: inactive |
| Nc1nccc(-c2cn(Cc3c4ccccc4cc4ccccc34)c3ccccc23)n1 | > 63 µM | > 63 µM | > 5.7 | > 8.9 | 7.06 µM | 11 µM | > 8.9 | > 8.9 | > 63 µM | > 5.7 | > 5.7 | – | – | 80 µM | – | – | – |
| O=C1NC(c2c[nH]c3ccc(Br)cc23)Nc2ccccc21 (stereo not given) | 53 µM | > 73 µM | – | – | – | – | – | – | 73 µM | – | – | – | Not Active | 79.9 µM | inactive | inactive | MBC [13]: inactive; MIC [13]: inactive; IC50 [13, 21]: 25.2 µM; Activity [14]: inactive; IC50 [15]: 14.8 µM; IC50 [5]: Not Active; Activity [16]: inactive; MBC [17]: inactive; MIC [17]: inactive; IC50 [17, 21]: 20.9 µM |
| Cc1noc(C)c1Cn1cc(-c2ccnc(N)n2)c2cc(Br)ccc21 | > 63 µM | > 63 µM | > 4.3 | > 6.5 | 9.62 µM | 14.6 µM | > 6.5 | > 6.5 | > 63 µM | > 4.3 | > 4.3 | inactive | – | 107 µM | – | – | – |
| O=C1NC(c2c[nH]c3ccccc23)Nc2ccccc21 (stereo not given) | – | – | – | – | – | – | – | – | – | – | – | – | – | – | – | – | Activity [5]: inactive; Activity [6]: inactive; Activity [12]: inactive |
| COCCn1cc(-c2ccnc(N)n2)c2cc(Br)ccc21 | 43 µM | > 72 µM | – | – | – | – | – | – | > 72 µM | – | – | – | Not Active | 23.6 µM | 57.6 µM (≈ 20 µg/mL) | 57.6 µM (≈ 20 µg/mL) | IC50 [13]: Not Active; MBC [13]: inactive; MIC [13]: inactive; Activity [14]: inactive; IC50 [15]: 27.4 µM; IC50 [5]: Not Active; Activity [16]: inactive; IC50 [17]: Not Active; MBC [17]: inactive; MIC [17]: inactive; IC90 ([12]; Leishmania donovani, 48 h): 52.2 µM |
| CCOc1ccccc1C(=O)n1cc(-c2ccnc(N)n2)c2ccccc21 | > 70 µM | > 70 µM | – | – | – | – | – | – | > 70 µM | – | – | – | Not Active | 47.4 µM | inactive | inactive | IC50 [13]: Not Active; MBC [13]: inactive; MIC [13]: inactive; Activity [14]: inactive; IC50 [15]: 45.6 µM; IC50 [5]: Not Active; Activity [16]: inactive; IC50 [17]: Not Active; MBC [17]: inactive; MIC [17]: inactive |
| Nc1nccc(-c2cn(CN3C(=O)c4ccccc4C3=O)c3ccc(Br)cc23)n1 | – | – | – | – | – | – | – | – | – | – | – | – | – | – | inactive | inactive | IC50 [13]: Not Active; MBC [13]: inactive; MIC [13]: inactive; Activity [14]: inactive; IC50 [15]: 26.9 µM; Activity [5]: inactive; Activity [6]: inactive; Activity [16]: inactive; IC50 [17]: Not Active; MBC [17]: inactive; MIC [17]: inactive; Activity [12]: inactive |
| N=C(N)c1ccc(OCCCCCOc2ccc(C(=N)N)cc2)cc1 [PENTAMIDINE] | – | – | – | – | – | – | – | – | – | – | – | – | – | – | – | – | IC90 ([12]; Leishmania donovani, 48 h): 6.21 µM |
| Nc1nccc(-c2cn(C(=O)c3ccccc3)c3ccccc23)n1 | > 80 µM | > 80 µM | > 17.4 | > 7 | 11.4 µM | 4.58 µM | > 7 | > 7 | > 80 µM | > 17.4 | > 17.4 | inactive | – | – | – | – | IC50 [12]: Not Active |
| Nc1nccc(-c2c[nH]c3ccccc23)n1 | 107 µM | 119 µM | > 26.8 | > 12.3 | 9.69 µM | 4.44 µM | > 12.3 | > 11.1 | > 119 µM | > 24.1 | > 26.8 | inactive | – | – | – | – | IC50 [12]: Not Active |
